Strand notation (5' to 3'): a small letter for the sugar, then the base; units joined by * are phosphorothioate-linked, units joined directly phosphodiester-linked; [ ] holds rarer units or linkages, { } end groups; capitals alone tell only the bases. e = 2'-O-(2-methoxyethyl) (MOE); [5mC] = 5-methylcytosine; d = 2'-deoxy (DNA)
Each substance was assayed on human hepatocyte growth factor receptor mRNA (assay: Inhibition of human hepatocyte growth factor receptor mRNA levels in T-24 cells, quantitative real-time PCR). Details: averages from three experiments.
Throughout, for % INHIB (inhibition of human hepatocyte growth factor receptor mRNA levels): test concentration or dose not given here.

Substance	% INHIB (inhibition of human hepatocyte growth factor receptor mRNA levels) [%]
209547 (antisense eT*e[5mC]*e[5mC]*eT*eG*d[5mC]*dT*dT*d[5mC]*dA*dA*dT*dT*dT*d[5mC]*e[5mC]*e[5mC]*eA*eT*eA) [compound 209547]	84
209548 (antisense eT*e[5mC]*eA*eA*eG*dA*dA*dG*d[5mC]*d[5mC]*d[5mC]*dT*d[5mC]*dA*dA*eT*eA*eT*eT*eT) [compound 209548]	67
209549 (antisense e[5mC]*e[5mC]*eT*eG*eA*dG*d[5mC]*dA*dT*dT*dA*d[5mC]*dT*dA*dT*e[5mC]*eT*e[5mC]*eT*eT) [compound 209549]	84
209550 (antisense eT*eG*e[5mC]*eG*e[5mC]*dG*d[5mC]*dT*dG*dT*dA*dG*dT*d[5mC]*d[5mC]*e[5mC]*eA*eG*e[5mC]*eT) [compound 209550]	84
209551 (antisense e[5mC]*eT*eT*eG*eG*dG*dA*dG*dG*d[5mC]*dG*dA*dG*dT*dG*eT*e[5mC]*eA*e[5mC]*e[5mC]) [compound 209551]	0
209552 (antisense eT*eG*eA*eA*eA*d[5mC]*dT*dT*dT*d[5mC]*dT*dA*dG*dG*dT*eG*eG*eA*eG*eA) [compound 209552]	0
209553 (antisense e[5mC]*eG*e[5mC]*e[5mC]*e[5mC]*dA*d[5mC]*dG*dA*d[5mC]*dA*dA*dG*dG*dT*eG*eA*eA*eA*e[5mC]) [compound 209553]	0
209554 (antisense eA*eG*eA*eG*eG*dG*dA*dA*dA*dT*d[5mC]*dG*dG*d[5mC]*d[5mC]*e[5mC]*e[5mC]*e[5mC]*eG*e[5mC]) [compound 209554]	0
209555 (antisense eG*e[5mC]*eG*e[5mC]*eG*d[5mC]*dT*dG*d[5mC]*d[5mC]*d[5mC]*dT*dG*d[5mC]*d[5mC]*eA*eG*eT*eG*eA) [compound 209555]	0

What follows are substances tested on human hepatocyte growth factor receptor mRNA (assay: not given). Details: not given.

Substance	inhibition of human hepatocyte growth factor receptor expression
ISIS 155097: 2′-MOE gapmer, phosphorothioate backbone, sequence cctcggtcagaaattgggaa (antisense CCTCGGTCAGAAATTGGGAA; all phosphorothioate, sugars by position and methylation of C not given here; 2'-MOE gapmer)	at least 35%
ISIS 155098: 2′-MOE gapmer, phosphorothioate backbone, sequence tcagaagtgtcctattaaag (antisense TCAGAAGTGTCCTATTAAAG; all phosphorothioate, sugars by position and methylation of C not given here; 2'-MOE gapmer)	at least 35%
ISIS 155099: 2′-MOE gapmer, phosphorothioate backbone, sequence caggtttttcccaacacctg (antisense CAGGTTTTTCCCAACACCTG; all phosphorothioate, sugars by position and methylation of C not given here; 2'-MOE gapmer)	at least 35%
ISIS 155101: 2′-MOE gapmer, phosphorothioate backbone, sequence ttcagccacaggaaaaaccc (antisense TTCAGCCACAGGAAAAACCC; all phosphorothioate, sugars by position and methylation of C not given here; 2'-MOE gapmer)	at least 35%
ISIS 155102: 2′-MOE gapmer, phosphorothioate backbone, sequence gagaggcattgactgcagga (antisense GAGAGGCATTGACTGCAGGA; all phosphorothioate, sugars by position and methylation of C not given here; 2'-MOE gapmer)	at least 35%
ISIS 155103: 2′-MOE gapmer, phosphorothioate backbone, sequence tgggaagctgatacttcata (antisense TGGGAAGCTGATACTTCATA; all phosphorothioate, sugars by position and methylation of C not given here; 2'-MOE gapmer)	at least 35%
ISIS 155104: 2′-MOE gapmer, phosphorothioate backbone, sequence atgcaatggatgatctggga (antisense ATGCAATGGATGATCTGGGA; all phosphorothioate, sugars by position and methylation of C not given here; 2'-MOE gapmer)	at least 35%
ISIS 155105: 2′-MOE gapmer, phosphorothioate backbone, sequence atcaaagtatttggaaagga (antisense ATCAAAGTATTTGGAAAGGA; all phosphorothioate, sugars by position and methylation of C not given here; 2'-MOE gapmer)	at least 35%
ISIS 155106: 2′-MOE gapmer, phosphorothioate backbone, sequence cacaacctgcatgaagcgac (antisense CACAACCTGCATGAAGCGAC; all phosphorothioate, sugars by position and methylation of C not given here; 2'-MOE gapmer)	at least 35%
ISIS 155107: 2′-MOE gapmer, phosphorothioate backbone, sequence tccgcggtgaagttgggaag (antisense TCCGCGGTGAAGTTGGGAAG; all phosphorothioate, sugars by position and methylation of C not given here; 2'-MOE gapmer)	at least 35%
ISIS 155108: 2′-MOE gapmer, phosphorothioate backbone, sequence attctcgggacactaactga (antisense ATTCTCGGGACACTAACTGA; all phosphorothioate, sugars by position and methylation of C not given here; 2'-MOE gapmer)	at least 35%
ISIS 155109: 2′-MOE gapmer, phosphorothioate backbone, sequence agctcgctgttcaatttcag (antisense AGCTCGCTGTTCAATTTCAG; all phosphorothioate, sugars by position and methylation of C not given here; 2'-MOE gapmer)	at least 35%
ISIS 155110: 2′-MOE gapmer, phosphorothioate backbone, sequence tcgggacactaactgaattc (antisense TCGGGACACTAACTGAATTC; all phosphorothioate, sugars by position and methylation of C not given here; 2'-MOE gapmer)	at least 35%
ISIS 155111: 2′-MOE gapmer, phosphorothioate backbone, sequence gttcggcagaatctggcttg (antisense GTTCGGCAGAATCTGGCTTG; all phosphorothioate, sugars by position and methylation of C not given here; 2'-MOE gapmer)	at least 35%

From patent publication US20040102622A1, “Modulation of hepatocyte growth factor receptor expression” (Isis Pharmaceuticals Inc., priority 2002, published 2004)
